# In US8795222B2, “Device and method for treatment of surface infections with nitric oxide” (Pulmonox Technologies Corp., priority 2000, dated 2014):
# Test system: non-healing venous leg ulcer
# Assay: Human case study, non-healing venous leg ulcer, topical gNO
# Format: in vivo
# Text: This case study involved a person with a 30 year history of severe venous disease, both deep and superficial, related to deep vein thrombophlebitis. Initially, while, the patient developed bilateral non-healing venous leg ulcers that were surgically treated. The surgical sites healed but the ulcers continued to recur. Initially, the patient presented with a small ulcer located just below the medial malleolus of the left ankle.
# Arrangements were made to meet at the patient's home the following day to set up the equipment and for them to have a repeat training on the use of the treatment system. Training included use of the system as well as safety information on using the gas equipment.
# Nitric oxide gas (ViaNOx-H, VIASYS Healthcare, Yorba Linda, Calif., USA) was applied to the lower extremity with use of a gas-diluting delivery system (CidaNOx Delivery System) designed specifically for the study (PulmoNOx Medical Inc., Edmonton, Alberta, Canada). This CidaNOx delivery system contains an internal air pump for dilution of the gNO and a flow control circuit to dilute the 800 parts per million (ppm) in the NO source cylinder down to the therapeutic level of 200 ppm. The total flow from the system was 1.0 L/min and included one-quarter of a liter per minute (250 ml/min) flow of gNO. Several internal pressure sensors assure the dilution flow is operational and monitor the system. The flow of nitric oxide was limited to 250 ml/min by a mechanically set pressure regulator and a mechanical flowmeter that have no external controls that could be changed by the patient. The concentration of nitric oxide delivered was assured by measurement of the CidaNOx output with a calibrated nitric oxide analyzer (AeroNOx, Pulmonox Medical Inc.) that is approved for monitoring inhaled NO in human patients.
# The 200 ppm gNO from the CidaNOx Delivery System flowed out to a single patient use plastic boot that covered the patient's lower extremity. […] A secondary air outlet from the CidaNOx unit managed the inflation of the cuff. The patient connected the pump outlet to the cuff connector until it was inflated and then the connector was sealed closed with the provided clamp. […]
# To explore the potential for wound bed preparation and accelerated wound healing from prolonged use, treatment regimen beyond three days was chosen and which was stopped at 14 days to evaluate the short-term effects and explore the possibility that the short-term effects would improve the longer-term outcome. […] The patient recorded the date, time, and duration of each treatment period on a data sheet, and any significant observations related to the wound, treatment, or equipment. The wound size (cm^2) was measured using digital photography and densitometry technique (Scion Image −4.02, Scion Corp., Frederick Md., USA). […]
smiles,measurement,setting,value
"[N]=O [gNO, nitric oxide]",ulcer status,26 weeks post NO discontinuation,completely healed and reepithelialized
same,"wound size, day 3","200 ppm gNO nightly, day 3, 24 hours cumulative exposure, p=0.014",Significant wound size reduction
same,reduction in wound area,"200 ppm gNO nightly, end of therapy at day 14",approximately 75%
same,wound healed,six weeks after the end of 14-day 200 ppm gNO treatment,about 90%
